“Also recorded” adds a separate entry of the source.
How the values were obtained:
PPARα [1] = biological target: T1, PPARα (Homo sapiens, UniProt Q07869); assay: PPARα transcriptional activity in PPARα reporter Combo cells (luciferase); type: cell-based; parameters: host or cells: PPARα reporter Combo cells; conditions: for PPARα transcriptional activity (luciferase), FIG. 1 and 2: 50 μM, PPARα reporter Combo cells; for PPARα transcriptional activity (luciferase), FIG. 1 and 2 / dose dependent effect on PPARα transcriptional activity, FIG. 3: 36 h; for dose dependent effect on PPARα transcriptional activity, FIG. 3: various concentrations up to 100 μM
T1 sequence (Q07869 1-468): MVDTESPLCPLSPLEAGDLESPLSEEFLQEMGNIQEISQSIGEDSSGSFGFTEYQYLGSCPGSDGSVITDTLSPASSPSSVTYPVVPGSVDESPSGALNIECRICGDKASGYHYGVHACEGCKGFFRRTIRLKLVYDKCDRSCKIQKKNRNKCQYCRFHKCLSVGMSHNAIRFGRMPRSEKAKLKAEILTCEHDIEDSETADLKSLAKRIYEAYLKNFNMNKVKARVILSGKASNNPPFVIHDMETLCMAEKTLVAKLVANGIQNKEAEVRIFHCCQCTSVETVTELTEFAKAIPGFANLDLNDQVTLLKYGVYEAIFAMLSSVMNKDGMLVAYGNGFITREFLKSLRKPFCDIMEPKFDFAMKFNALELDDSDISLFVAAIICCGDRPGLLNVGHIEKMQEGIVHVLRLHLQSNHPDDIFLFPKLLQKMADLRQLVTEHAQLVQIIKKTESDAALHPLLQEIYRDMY
Experimental: The PPARα reporter Combo cells were treated with the indicated compounds at concentrations of 50 μM for 36 h, and then luciferase activities were measured.
The PPARα reporter Combo cells were treated with indicated compounds at concentrations of 50 μM for 36 h, and then luciferase activities were measured.
Various phenylquinoline derivatives of the present disclosure were tested for their effects on PPARα transcriptional activity in PPARα reporter Combo cells, including NCI8 and compounds 1-13 as disclosed herein, as measured against the effect of Feno-FA.
Cells were treated with various compounds at concentrations of 50 μM for 36 h, after which luciferase activities were measured. […] Cells were treated with various compounds at concentrations of 50 μM for 36 h, after which luciferase activities were measured. […] The experiments were repeated as various increasing concentrations comparing the effects of Feno-FA (FIG. 4), NCI8 (FIG. 5), compound 2 (FIG. 6), and compound 8 (FIG. 7).

[2] = system: human retinal capillary endothelial cells (HRCEC); assay: endothelial cell migration in HRCEC; type: cell-based
[3] = system: human retinal capillary endothelial cells (HRCEC); assay: tube formation in HRCEC; type: cell-based
[4] = system: human retinal Müller cells (MIO-M1); assay: TUNEL, palmitate-induced apoptosis in Müller cells; type: cell-based
[5] = system: retinal precursor cells (R28); assay: TUNEL, palmitate-induced apoptosis in retinal precursor cells; type: cell-based
ARPE19 cells = assay: palmitate-induced cell death in ARPE19 cells; type: cell-based
retinal leukostasis = assay: leukostasis assay in oxygen-induced retinopathy (OIR) model; type: in vivo, C57BL/6 mice; conditions: OIR mice, 10 mg/kg/day i.p. P12 to P16, examined at P17, vs vehicle
ICAM-1, MCP-1, TNF-α = assay: retinal levels of inflammatory factors by Western blotting in OIR model; type: in vivo, C57BL/6 mice; conditions: OIR mice, 10 mg/kg/day i.p. P12 to P16, Western blotting
VEGF = assay: expression of VEGF; conditions: potency similar to or higher than fenofibrate
[6] = system: retinal capillaries and pericytes; assay: retinal capillary degeneration and pericyte loss in streptozotocin-induced diabetic rats; type: in vivo; conditions: i.p., 10 mg/kg/day, 3 weeks
PPARα [7] = biological target: T1, PPARα; assay: luciferase-based promoter assay of PPARα activation
Experimental: The activation of PPARα by NCI8 was measured by luciferase-based promoter assay. […] Student's T-test was used for statistical analysis.

Structure (SMILES): COc1ccc(-c2cc(C(=O)O)c3ccccc3n2)cc1OC [Compound 2, 2-(3,4-dimethoxyphenyl) quinoline-4-carboxylic acid]
- PPARα transcriptional activity (luciferase), FIG. 1 and 2 (PPARα [1]): highest agonistic activity
- PPARα transcriptional activity at various increasing concentrations, FIG. 4-7 (PPARα [1]; compared with Feno-FA, NCI8, compound 8): greatest agonistic activity
- dose dependent effect on PPARα transcriptional activity, FIG. 3 (PPARα [1]): greatest activity

Structure (SMILES): O=C(O)c1cc(-c2ccccc2O)nc2ccccc12 [Compound 8, 2-(2-hydroxyphenyl) quinoline-4-carboxylic acid]
- PPARα transcriptional activity (luciferase), FIG. 1 and 2 (PPARα [1]): highest agonistic activity
- dose dependent effect on PPARα transcriptional activity, FIG. 3 (PPARα [1]): greatest activity

Structure (SMILES): Cc1c(Cl)ccc2c(C(=O)O)cc(-c3ccccc3)nc12 [NCI8, 7-chloro-8-methyl-2-phenylquinoline-4-carboxylic acid]
- HRCEC migration [2]: significantly inhibited
- concentration range of concentration-dependent inhibition of endothelial cell migration [2]: 50 to 200 µM
- HRCEC tube formation [3]: significantly inhibited; also recorded: higher potency than fenofibric acid
- palmitate-induced apoptosis of human retinal Müller cells [4]: protective effect
- palmitate-induced apoptosis of retinal precursor cells [5]: protective effect
- RPE cell death induced by palmitate (ARPE19 cells): protection of RPE cells from cell death
- number of adherent leukocytes in the retinal vasculature (retinal leukostasis) (retinal leukostasis): decreased; also recorded: significantly reduced
- retinal level of ICAM-1 (ICAM-1, MCP-1, TNF-α): downregulated; also recorded: significantly down-regulated
- retinal level of MCP-1 (ICAM-1, MCP-1, TNF-α): downregulated; also recorded: significantly down-regulated
- retinal level of TNF-α (ICAM-1, MCP-1, TNF-α): downregulated; also recorded: significantly down-regulated
- expression of VEGF (VEGF): inhibited
- pericyte loss (pericyte numbers) ([6]; diabetic rats): ameliorated; also recorded: significantly increased
- retinal capillary degeneration (numbers of acellular capillaries in the retina) ([6]; streptozotocin-induced diabetic rats): ameliorated; also recorded: decreased
- EC50 (PPARα [7]): 49.9 µM
- PPARα transcriptional activity (PPARα [7]; luciferase-based promoter assay): activated PPARα transcriptional activity in a concentration-dependent manner; also recorded: Potent effects in enhancing transcriptional activities of PPARα

Source: patent US11337968B2, “Phenylquinoline compositions for treatment of ocular disorders and conditions” (The Board of Regents of the University of Oklahoma, priority 2016, dated 2022)
